Measurements from patent US6399568B1, “Cyclic tetrapeptide derivatives and medicinal use thereof” (Japan Energy Corporation, priority 1997, dated 2002).
Non-standard residues stand in square brackets, D forms with d. Residues, ends and D or L forms follow the SMILES beside them. ξ: configuration not given here. *: point of attachment. d1Nal = N[C@H](Cc1cccc2ccccc12)C(=O)O; Asu = N[C@@H](CCCCCC(=O)O)C(=O)O; dTic = O=C(O)[C@H]1Cc2ccccc2CN1; Ile(3ξ) = CCC(C)[C@H](N)C(=O)O; Pip = O=C(O)[C@@H]1CCCCN1; dPip = O=C(O)[C@H]1CCCCN1; BrAc = O=C(CBr)*; Sar = CNCC(=O)O; For = O=C*; NHOH = ON*

Legend:
B16/BL6 cells = assay: MHC class-I molecule expression promoting activity; assay type: cell-based, mouse; conditions: for conc. for 2-fold expression (nM) mean: mean of a plurality of assays; for MHC class-I molecule expression promoting activity: allowed to act on animal cells (summary statement)
Experimental: The cancer cells used were mouse melanoma cells, B16/BL6 cells, provided by, the National Cancer Institute, U.S.A. Said cells were cultivated in MEM media supplemented with 10% FBS at 37° C. in the presence of 5% carbon dioxide in an humidified incubator.
A compound to be tested was preliminarily dissolved in dimethyl sulfoxide (DMSO) and adjusted to a concentration of 100 mM or 10 mM (source solution).
Said B16/BL6 cells were inoculated on 96 well microplate at a cell density of 5000 cells per well, each well containing 200 μl of said medium. […] Thereafter, each well was once washed with PBS (phosphate buffered saline) and floating cells and the medium were removed. Then, the well was treated with 0.1% glutaraldehyde solution for 3 minutes to fix the cells.
The amount of MHC class-I molecule expressed on the surface of the fixed cells was measured by the following method. Anti-H-2K^bD^bD^d antibody, which is an antibody against mouse MHC classI molecule (commercially available from Meiji Milk Co., Ltd), was used as a primary antibody, biotinylated anti-mouse IgG+M (commercially available from Chemicon) was used as a secondary antibody, and streptavidin-β-galactosidase conjugate (commercially available from BRL) was reacted as a labelling enzyme. The amount of the thus labelled enzyme β-galactosidase was measured in a microplate reader by recording the fluorescent intensity (excitation: 365 nm, fluorescence: 450 nm) derived from the enzymaticreaction product using 4-methylumbelliferyl-β-D-galactoside (commercially available from Nacalai Tesque) as a substrate. […] The value obtained by subtracting said background level from the, actually measured value (an apparent value including the background level) was the true measurement reflecting the amount of expressed MHC class-I molecule.
A group without the addition of any compound to be tested was used as a reference group and the measurement of MHC class-I molecule expressed in said group was used as a standard value. The amount of MHC class-I molecule expressed at a concentration of addition of each test compound is shown as a relative amount, said standard value taken as one (1). For each compound to be tested, various concentrations of addition were selected to investigate the dependency of MHC class-I molecule expression promoting action on the concentration of addition.

histone deacetylase = assay: Histone deacetylase enzyme inhibiting activity, synthetic peptide substrate; assay type: biochemical, mouse; conditions: enzyme from B16/BL6 cells; [3H]acetylated histone H4 peptide; 37° C. 3 hours
Experimental: The preparation of histone deacetylase was performed essentially according to the method of Yoshida et al. (J. Biol. Chem., 265,17174-17179, 1990). The enzyme to be used was partially purified from B16/BL6 cells. The cells were suspended in HDA buffer (15 mM potassium phosphate, 5% glycerol, 0.2 mM EDTA, […], pH 7.5), homogenized and centrifuged (2500×g, 10 min) to collect the nuclei, which in turn were homogenized in the same buffer containing 1 M (NH4)2SO4. After ultrasonic disruption and centrifugation, the concentration of (NH4)2SO4 in the collected supernatant was increased to 3.5 M to precipitate histone deacetylase. This precipitate was redissolved in HDA buffer, subjected to gel filtration to replace the solvent with HDA buffer, and used as a crude histone deacetylase enzyme solution.
As a substrate, a synthetic substrate peptide, [^3H]acetylated histone H4 peptide was used. This [^3H]acetylated histone H4 peptide was obtained by synthesizing the N-terminal peptide of histone H4; […] (the C-terminal being cysteine) and radio-acetylating with ^3H -acetic anhydride.
An assay was performed by incubating the synthetic substrate solution and the enzyme solution at 37° C. for 3 hours in the presence of a compound to be tested (reaction volume, 100 μl). The reaction was stopped by adding 25 μl of 1 M HCl and 0.2 M acetic acid and [^3H]acetate excised by the enzyme reaction was extracted with ethyl acetate for radioactivity measurement. As a control group, the same procedure was repeated without addition of any test compound to the reaction system. The inhibiting activity was expressed by a concentration at which the histone deacetylase enzyme activity in the control group was inhibited by 50% (50% inhibiting concentration).

Compound	conc. for 2-fold expression (nM) mean (B16/BL6 cells; 72 hours)	further results
O=C(CCCCC[C@@H]1NC(=O)[C@@H]2CCCN2C(=O)[C@H](Cc2ccccc2)NC(=O)[C@@H](Cc2ccccc2)NC1=O)NO [HDA-38, cyclo(-L-Asu(NHOH)-D-Phe-L-Phe-L-Pro-)] (cyclo([Asu](NHOH)[dF]FP))	558 nM	IC50 (histone deacetylase): 5.32 nM
O=C(CBr)NCCCC[C@@H]1NC(=O)[C@H]2CCCN2C(=O)[C@H](Cc2ccccc2)NC(=O)[C@H](Cc2ccccc2)NC1=O [HDA-26, cyclo(-L-Lys(BrAc)-L-Phe-L-Phe-D-Pro-)] (cyclo(FF[dP]K(BrAc)))	5660 nM	
cyclo(-Asu(NHOH)-D-Phe-Phe-Sar-) [CHAP41]	24.5 nM	
CC(C)C[C@@H]1NC(=O)[C@H](Cc2cn(C=O)c3ccccc23)NC(=O)[C@H](CCCCCC(=O)NO)NC(=O)[C@H]2CCCCN2C1=O [HDA-16, cyclo(-L-Asu(NHOH)-L-Trp(CHO)-L-Leu-D-Pip-)] (cyclo([Asu](NHOH)W(For)L[dPip]))	toxic	
CC(C)C[C@@H]1NC(=O)[C@H](Cc2c[nH]c3ccccc23)NC(=O)[C@H](CCCCCC(=O)NO)NC(=O)[C@H]2CCCCN2C1=O [HDA-33, cyclo(-L-Asu(NHOH)-L-Trp-L-Leu-D-Pip-)] (cyclo([Asu](NHOH)WL[dPip]))	weak	
O=C(O)c1ccccc1 [benzoic acid, reference compound]	>200000 nM	
COc1ccc(C[C@H]2NC(=O)[C@H](CCCCCC(=O)NO)NC(=O)[C@H]3CCCN3C(=O)[C@H](C)NC2=O)cc1 [HDA-44, cyclo(-L-Asu(NHOH)-D-Tyr(Me)-L-Ala-D-Pro-)] (cyclo(A[dP][Asu](NHOH)[dY](Me)))	35.00 nM	
O=C(NO)c1cccnc1 [nicotinic acid hydroxamate, reference compound]	28000 nM	
CCC(C)[C@@H]1NC(=O)[C@@H](Cc2ccc3ccc4cccc5ccc2c3c45)NC(=O)[C@H](CCCCCC(=O)NO)NC(=O)[C@H]2CCCN2C1=O (stereo partly drawn) [HDA-48, cyclo(-L-Asu(NHOH)-D-Pya-L-Ile-D-Pro-)]	0.846 nM	
cyclo(-Asu(NHOH)-Phe-Phe-D-Pro-)2 [HDA-19, reference compound]	weak	MHC class-I molecule expression promoting action (B16/BL6 cells; FIGS. 3 and 4, dependence on concentration of addition): low MHC class-I molecule expression promoting action was observed only at a high concentration of addition; Twice Promoting Concentration Cx2 (B16/BL6 cells; concentration at which MHC class-I expression is twice that without addition, 72 hours): >40 µM
CC[C@H](C)[C@@H]1NC(=O)[C@@H](Cc2ccc(OC)cc2)NC(=O)[C@H](CCCCCC(=O)NO)NC(=O)[C@H]2Cc3ccccc3CN2C1=O [HDA-52, cyclo(-L-Asu(NHOH)-D-Tyr(Me)-L-Ile-D-Tic-)] (cyclo([Asu](NHOH)[dY](Me)I[dTic]))	0.191 nM	IC50 (histone deacetylase): 4.35 nM
CCC(C)[C@@H]1NC(=O)[C@@H](Cc2cccc3ccccc23)NC(=O)[C@H](CCCCCC(=O)NO)NC(=O)[C@H]2CCCN2C1=O (stereo partly drawn) [HDA-47, cyclo(-L-Asu(NHOH)-D-Naf-L-Ile-D-Pro-)] (cyclo([Asu](NHOH)[d1Nal][Ile(3ξ)][dP]))	9.59 nM	
CC(/C=C/C(=O)NO[C@@H]1O[C@H](CO)[C@@H](O)[C@H](O)[C@H]1O)=C\[C@@H](C)C(=O)c1ccc(N(C)C)cc1 [trichostatin C, reference compound]	6.88 nM	MHC class-I molecule expression promoting activity (B16/BL6 cells): promotes the expression of MHC class-I molecule
O=C(O)c1cccnc1 [nicotinic acid, reference compound]	>1000000 nM	
C[C@@H]1NC(=O)[C@@H](Cc2ccccc2)NC(=O)[C@H](CCCCCC(=O)NO)NC(=O)[C@H]2CCCN2C1=O [HDA-45, cyclo(-L-Asu(NHOH)-D-Phe-L-Ala-D-Pro-)] (cyclo(A[dP][Asu](NHOH)[dF]))	23.1 nM	
CC(=O)NC(CCCCCC(=O)NO)C(=O)NCc1ccccc1 (centres unmarked) [Ac-Asu(NHOH)-NH-Bzl, reference compound]	2410 nM	
CN1CC(=O)N[C@@H](CCCCCC(=O)NO)C(=O)N[C@@H](Cc2ccccc2)C(=O)N[C@@H](Cc2ccccc2)C1=O [HDA-40, cyclo(-L-Asu(NHOH)-L-Phe-L-Phe-Sar-)] (cyclo([Asu](NHOH)FF[Sar]))	748 nM	
NC(=O)c1cccnc1 [nicotinamide, reference compound]	>1000000 nM	
O=C(CCCCCc1ccccc1)NO [Ph-(CH2)5-CONHOH, reference compound]	11400 nM	
cyclo (-L-Lys(Ac)L-Phe-L-Phe-D-Pro-)2 [HDA-7, reference compound]	75000 nM	
O=C(CCCCC[C@@H]1NC(=O)[C@@H](Cc2ccccc2)NC(=O)[C@H](Cc2ccccc2)NC(=O)[C@H]2CCCN2C1=O)NO [HDA-37, cyclo(-L-Asu(NHOH)-D-Pro-L-Phe-D-Phe-)] (cyclo([Asu](NHOH)[dP]F[dF]))	320 nM	IC50 (histone deacetylase): 9.16 nM
cyclo(-L-Asu(NHOH)-D-Tyr(Me)-L-Ile-L-Pro-)2 [HDA-14, reference compound]	>10000 nM	
CCC(C)[C@@H]1NC(=O)[C@@H](Cc2ccc(OC)cc2)NC(=O)[C@H](CCCCC(=O)NO)NC(=O)[C@H]2CCCN2C1=O (stereo partly drawn) [HDA-42, cyclo(-L-Api(NHOH)-D-Tyr(Me)-L-Ile-D-Pro-)]	512 nM	IC50 (histone deacetylase): 53.8 nM
CCC(C)[C@@H]1NC(=O)[C@@H](Cc2ccccc2)NC(=O)[C@H](CCCCCC(=O)NO)NC(=O)[C@H]2CCCN2C1=O (stereo partly drawn) [HDA-46, cyclo(-L-Asu(NHOH)-D-Phe-L-Ile-D-Pro-)] (cyclo([Asu](NHOH)[dF][Ile(3ξ)][dP]))	1.96 nM	
CCCC(=O)O [butyric acid, reference compound]		MHC class-I molecule expression promoting activity (B16/BL6 cells): exhibit the MHC class-I molecule expression promoting activity
O=C(NO)c1ccccc1 [benzohydroxamic acid, reference compound]	35800 nM	
CCC(C)[C@@H]1NC(=O)[C@@H](Cc2ccc(OC)cc2)NC(=O)[C@H](CCCCCCC(=O)NO)NC(=O)[C@H]2CCCN2C1=O (stereo partly drawn) [HDA-43, cyclo(-L-Aaz(NHOH)-D-Tyr(Me)-L-Ile-D-Pro-)]	155 nM	IC50 (histone deacetylase): 33.9 nM
O=C(CCCCC[C@@H]1NC(=O)[C@@H]2CCCN2C(=O)[C@@H](Cc2ccccc2)NC(=O)[C@H](Cc2ccccc2)NC1=O)NO [HDA-39, cyclo(-L-Asu(NHOH)-L-Phe-D-Phe-L-Pro-)] (cyclo([Asu](NHOH)F[dF]P))	65800 nM	IC50 (histone deacetylase): 226 nM
CC(C)C[C@@H]1NC(=O)[C@@H](Cc2ccccc2)NC(=O)[C@H](CCCCCC(=O)NO)NC(=O)[C@@H]2CCCCN2C1=O [HDA-53, cyclo(-L-Asu(NHOH)-D-Phe-L-Leu-L-Pip-)] (cyclo([Asu](NHOH)[dF]L[Pip]))	19.8 nM	
